Source: PMC3712534 (The FEBS journal, 2013)

What was measured:
IKK family members = settings: cited from earlier work
DUSP4 = biological target: T1, DUSP4 (Homo sapiens, UniProt Q13115); assay: Inhibition of a panel of PTPs: DUSP4; assay type: biochemical
T1 sequence (Q13115 1-394): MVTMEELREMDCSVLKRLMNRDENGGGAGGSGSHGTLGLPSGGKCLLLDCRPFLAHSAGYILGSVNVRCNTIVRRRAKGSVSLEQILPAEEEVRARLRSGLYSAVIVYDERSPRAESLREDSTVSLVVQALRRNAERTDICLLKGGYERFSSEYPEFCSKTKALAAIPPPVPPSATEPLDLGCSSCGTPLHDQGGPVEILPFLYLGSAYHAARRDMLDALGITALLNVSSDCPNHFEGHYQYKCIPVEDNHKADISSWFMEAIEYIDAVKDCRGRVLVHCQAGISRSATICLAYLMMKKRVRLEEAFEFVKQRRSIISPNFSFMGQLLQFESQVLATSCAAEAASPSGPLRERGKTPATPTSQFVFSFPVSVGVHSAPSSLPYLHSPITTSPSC

PTP1B [1] = biological target: T2, PTP1B (Homo sapiens, UniProt P18031); assay: Inhibition of a panel of PTPs: PTP1B phosphatase activity, DiFMUP substrate; assay type: biochemical
T2 sequence (P18031 1-405): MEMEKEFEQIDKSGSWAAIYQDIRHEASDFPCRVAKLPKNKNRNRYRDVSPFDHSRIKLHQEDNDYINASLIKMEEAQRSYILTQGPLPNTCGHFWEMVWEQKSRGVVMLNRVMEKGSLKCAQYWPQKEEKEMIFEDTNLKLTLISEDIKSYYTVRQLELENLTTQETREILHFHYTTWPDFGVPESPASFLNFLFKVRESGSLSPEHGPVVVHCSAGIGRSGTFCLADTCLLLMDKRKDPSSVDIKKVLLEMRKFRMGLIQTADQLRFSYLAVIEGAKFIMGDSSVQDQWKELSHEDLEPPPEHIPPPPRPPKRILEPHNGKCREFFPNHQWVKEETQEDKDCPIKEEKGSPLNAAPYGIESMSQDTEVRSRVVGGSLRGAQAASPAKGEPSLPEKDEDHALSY

PTP-alpha = PTP-alpha (Homo sapiens, UniProt P18433); assay: Inhibition of a panel of PTPs: PTP-alpha; assay type: biochemical
DUSP10 = biological target: T3, DUSP10 (Homo sapiens, UniProt Q9Y6W6); assay: Inhibition of a panel of PTPs: DUSP10; assay type: biochemical
T3 sequence (Q9Y6W6 1-482): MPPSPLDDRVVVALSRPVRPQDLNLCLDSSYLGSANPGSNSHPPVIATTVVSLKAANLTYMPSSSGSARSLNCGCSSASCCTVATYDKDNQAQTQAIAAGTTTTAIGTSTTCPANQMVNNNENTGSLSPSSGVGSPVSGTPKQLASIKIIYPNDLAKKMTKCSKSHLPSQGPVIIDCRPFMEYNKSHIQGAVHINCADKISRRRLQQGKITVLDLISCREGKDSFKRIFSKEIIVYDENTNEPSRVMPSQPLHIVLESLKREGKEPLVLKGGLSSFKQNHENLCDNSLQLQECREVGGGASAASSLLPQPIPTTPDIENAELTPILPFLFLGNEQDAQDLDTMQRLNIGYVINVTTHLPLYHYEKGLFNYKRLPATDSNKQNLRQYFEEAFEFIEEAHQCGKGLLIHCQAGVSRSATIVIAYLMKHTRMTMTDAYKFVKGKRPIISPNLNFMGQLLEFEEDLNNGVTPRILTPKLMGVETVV

DUSP14 = biological target: T4, DUSP14 (Homo sapiens, UniProt O95147); assay: Inhibition of a panel of PTPs: DUSP14; assay type: biochemical
T4 sequence (O95147 1-198): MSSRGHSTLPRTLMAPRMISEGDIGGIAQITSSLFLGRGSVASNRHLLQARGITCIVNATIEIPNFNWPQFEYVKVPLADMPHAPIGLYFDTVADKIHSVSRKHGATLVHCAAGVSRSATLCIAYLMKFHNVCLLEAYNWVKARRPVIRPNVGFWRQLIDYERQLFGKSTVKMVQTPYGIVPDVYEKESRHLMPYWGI

DUSP16 = biological target: T5, DUSP16 (Homo sapiens, UniProt Q9BY84); assay: Inhibition of a panel of PTPs: DUSP16; assay type: biochemical
T5 sequence (Q9BY84 1-665): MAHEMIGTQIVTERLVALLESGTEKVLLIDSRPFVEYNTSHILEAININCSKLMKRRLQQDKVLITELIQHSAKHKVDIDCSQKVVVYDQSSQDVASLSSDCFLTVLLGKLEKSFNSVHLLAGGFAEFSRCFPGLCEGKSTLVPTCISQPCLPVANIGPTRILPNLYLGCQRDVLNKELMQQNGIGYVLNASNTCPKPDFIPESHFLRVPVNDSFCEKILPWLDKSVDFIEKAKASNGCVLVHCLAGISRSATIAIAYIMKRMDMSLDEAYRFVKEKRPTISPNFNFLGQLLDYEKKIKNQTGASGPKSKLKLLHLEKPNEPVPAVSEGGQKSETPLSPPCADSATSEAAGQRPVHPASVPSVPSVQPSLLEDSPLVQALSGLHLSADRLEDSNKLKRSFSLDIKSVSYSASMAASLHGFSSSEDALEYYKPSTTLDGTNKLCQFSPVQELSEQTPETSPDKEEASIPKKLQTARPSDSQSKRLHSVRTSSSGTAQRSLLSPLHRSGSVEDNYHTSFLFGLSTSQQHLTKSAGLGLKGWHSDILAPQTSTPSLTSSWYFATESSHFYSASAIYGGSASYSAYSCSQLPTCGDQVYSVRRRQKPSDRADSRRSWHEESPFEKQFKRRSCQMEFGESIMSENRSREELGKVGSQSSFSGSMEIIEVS

PTP1B [2] = biological target: T2, PTP1B; assay: Kinetics of time-dependent PTP1B inactivation, continuous DiFMUP assay; assay type: biochemical; settings: catalase 0.5 μg/mL (1 unit per assay); PTP1B 5 nM; HEPES pH 7.0, 5 mM DTT
PTEN = PTEN (Homo sapiens, UniProt P60484); assay: Inhibition of a panel of PTPs: PTEN; assay type: biochemical
PTP-PEST = biological target: T6, PTP-PEST (Homo sapiens, UniProt Q05209); assay: Inhibition of a panel of PTPs: PTP-PEST; assay type: biochemical
T6 sequence (Q05209 1-780): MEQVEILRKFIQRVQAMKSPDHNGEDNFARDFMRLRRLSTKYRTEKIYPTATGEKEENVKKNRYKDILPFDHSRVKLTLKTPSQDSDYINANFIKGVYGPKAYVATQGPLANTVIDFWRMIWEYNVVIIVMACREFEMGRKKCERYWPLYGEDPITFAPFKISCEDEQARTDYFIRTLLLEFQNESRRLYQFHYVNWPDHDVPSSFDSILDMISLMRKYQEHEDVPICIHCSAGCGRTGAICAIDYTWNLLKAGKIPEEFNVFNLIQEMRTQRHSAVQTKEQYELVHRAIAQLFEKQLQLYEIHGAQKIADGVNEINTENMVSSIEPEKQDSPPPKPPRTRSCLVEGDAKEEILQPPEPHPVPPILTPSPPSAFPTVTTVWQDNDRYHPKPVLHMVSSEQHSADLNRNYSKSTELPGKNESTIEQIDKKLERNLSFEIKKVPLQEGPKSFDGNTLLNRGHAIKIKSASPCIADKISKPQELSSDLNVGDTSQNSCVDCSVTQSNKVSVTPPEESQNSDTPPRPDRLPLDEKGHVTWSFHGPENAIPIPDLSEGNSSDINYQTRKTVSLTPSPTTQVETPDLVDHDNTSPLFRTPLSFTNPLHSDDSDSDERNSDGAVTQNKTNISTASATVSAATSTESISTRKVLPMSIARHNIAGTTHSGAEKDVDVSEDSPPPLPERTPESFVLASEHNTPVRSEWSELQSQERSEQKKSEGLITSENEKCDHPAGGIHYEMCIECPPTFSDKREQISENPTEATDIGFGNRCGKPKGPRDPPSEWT

LAR = LAR (Homo sapiens, UniProt P10586); assay: Inhibition of a panel of PTPs: LAR; assay type: biochemical
PTP1B [3] = biological target: T2, PTP1B; assay: Michaelis-Menten analysis of PTP1B with DiFMUP without and with inhibitor; assay type: biochemical; settings: read-out: drop of maximum rate (Vmax) in the presence of inhibitor
TC-PTP = biological target: T7, TC-PTP (Homo sapiens, UniProt P17706); assay: Inhibition of a panel of PTPs: TC-PTP; assay type: biochemical
T7 sequence (P17706 1-415): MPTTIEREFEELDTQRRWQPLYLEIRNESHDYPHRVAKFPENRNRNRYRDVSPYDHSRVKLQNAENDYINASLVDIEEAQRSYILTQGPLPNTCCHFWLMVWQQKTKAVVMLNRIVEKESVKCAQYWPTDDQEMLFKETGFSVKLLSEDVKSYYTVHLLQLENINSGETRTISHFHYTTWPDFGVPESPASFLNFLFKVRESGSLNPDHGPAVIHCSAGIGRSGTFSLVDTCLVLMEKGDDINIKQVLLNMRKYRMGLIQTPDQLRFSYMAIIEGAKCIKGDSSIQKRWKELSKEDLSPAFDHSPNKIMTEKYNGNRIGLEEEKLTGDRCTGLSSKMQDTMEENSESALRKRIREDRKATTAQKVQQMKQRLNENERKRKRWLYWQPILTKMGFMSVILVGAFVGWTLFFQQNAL

PTP1B [4] = biological target: T2, PTP1B; settings: cited from earlier work
RAW 264 macrophages = assay: Anti-phosphotyrosine; assay type: cell-based; settings: 1 mM, 30 minutes; in the presence and absence of LPS

Sequence of PTEN (P60484 whole entry, species assumed): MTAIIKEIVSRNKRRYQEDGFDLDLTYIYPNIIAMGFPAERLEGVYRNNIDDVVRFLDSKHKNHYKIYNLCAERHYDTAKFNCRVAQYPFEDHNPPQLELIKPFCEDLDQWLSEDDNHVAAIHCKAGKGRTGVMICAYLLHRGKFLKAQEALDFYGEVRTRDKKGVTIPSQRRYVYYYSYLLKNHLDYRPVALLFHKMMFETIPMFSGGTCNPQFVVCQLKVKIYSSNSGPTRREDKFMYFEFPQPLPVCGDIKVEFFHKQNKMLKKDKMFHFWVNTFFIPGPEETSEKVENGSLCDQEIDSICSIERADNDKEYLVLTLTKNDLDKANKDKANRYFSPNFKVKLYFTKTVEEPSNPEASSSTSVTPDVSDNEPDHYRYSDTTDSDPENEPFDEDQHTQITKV
Sequence of LAR (P10586 30-1907, species assumed): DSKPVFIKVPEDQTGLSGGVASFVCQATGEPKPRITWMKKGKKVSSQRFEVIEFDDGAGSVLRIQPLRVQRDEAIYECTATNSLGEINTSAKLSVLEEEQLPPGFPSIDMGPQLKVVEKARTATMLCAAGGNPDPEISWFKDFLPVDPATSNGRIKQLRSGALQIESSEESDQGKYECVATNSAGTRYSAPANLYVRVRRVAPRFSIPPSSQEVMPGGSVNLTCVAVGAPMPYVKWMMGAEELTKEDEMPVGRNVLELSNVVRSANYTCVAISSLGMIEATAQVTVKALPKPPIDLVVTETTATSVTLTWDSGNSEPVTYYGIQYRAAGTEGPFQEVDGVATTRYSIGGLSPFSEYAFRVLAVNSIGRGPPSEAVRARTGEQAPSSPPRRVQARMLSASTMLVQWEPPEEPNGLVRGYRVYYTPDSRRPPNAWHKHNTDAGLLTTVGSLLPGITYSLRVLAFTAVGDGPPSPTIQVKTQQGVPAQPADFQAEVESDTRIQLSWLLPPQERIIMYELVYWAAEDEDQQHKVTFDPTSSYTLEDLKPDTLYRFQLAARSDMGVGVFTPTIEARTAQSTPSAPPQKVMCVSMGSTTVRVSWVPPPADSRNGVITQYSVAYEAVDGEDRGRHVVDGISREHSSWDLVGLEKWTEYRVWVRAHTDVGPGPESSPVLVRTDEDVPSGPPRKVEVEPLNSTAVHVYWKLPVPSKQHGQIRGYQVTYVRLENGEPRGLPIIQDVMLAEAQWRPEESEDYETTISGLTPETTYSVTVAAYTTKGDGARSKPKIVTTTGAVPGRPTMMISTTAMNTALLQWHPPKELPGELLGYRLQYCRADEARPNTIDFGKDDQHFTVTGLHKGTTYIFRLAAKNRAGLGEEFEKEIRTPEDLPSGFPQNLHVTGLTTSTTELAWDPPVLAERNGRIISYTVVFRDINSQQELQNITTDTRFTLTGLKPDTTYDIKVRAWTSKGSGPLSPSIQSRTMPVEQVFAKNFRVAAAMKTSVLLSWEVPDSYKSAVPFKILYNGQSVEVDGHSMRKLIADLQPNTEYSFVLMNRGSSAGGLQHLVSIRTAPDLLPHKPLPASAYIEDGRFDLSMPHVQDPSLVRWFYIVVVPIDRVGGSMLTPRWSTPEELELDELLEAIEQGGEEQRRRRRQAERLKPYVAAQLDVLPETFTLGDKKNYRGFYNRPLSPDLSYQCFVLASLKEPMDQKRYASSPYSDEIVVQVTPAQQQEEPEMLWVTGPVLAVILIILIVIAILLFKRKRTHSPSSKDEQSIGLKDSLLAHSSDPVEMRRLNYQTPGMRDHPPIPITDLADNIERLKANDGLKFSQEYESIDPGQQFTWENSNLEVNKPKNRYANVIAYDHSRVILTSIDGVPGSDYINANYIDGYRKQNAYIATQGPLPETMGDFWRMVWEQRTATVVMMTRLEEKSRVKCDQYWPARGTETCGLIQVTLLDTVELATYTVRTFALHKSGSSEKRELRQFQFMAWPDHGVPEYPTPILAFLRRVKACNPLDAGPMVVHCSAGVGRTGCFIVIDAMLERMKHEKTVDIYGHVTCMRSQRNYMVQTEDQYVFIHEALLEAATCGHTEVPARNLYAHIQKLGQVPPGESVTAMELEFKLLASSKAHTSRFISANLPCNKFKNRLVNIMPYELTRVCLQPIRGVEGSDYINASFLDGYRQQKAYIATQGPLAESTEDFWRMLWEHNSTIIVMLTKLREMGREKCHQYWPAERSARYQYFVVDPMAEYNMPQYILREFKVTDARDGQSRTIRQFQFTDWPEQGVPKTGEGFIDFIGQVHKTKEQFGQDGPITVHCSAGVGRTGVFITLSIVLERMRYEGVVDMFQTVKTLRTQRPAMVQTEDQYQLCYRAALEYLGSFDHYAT
Sequence of PTP-alpha (P18433 20-802): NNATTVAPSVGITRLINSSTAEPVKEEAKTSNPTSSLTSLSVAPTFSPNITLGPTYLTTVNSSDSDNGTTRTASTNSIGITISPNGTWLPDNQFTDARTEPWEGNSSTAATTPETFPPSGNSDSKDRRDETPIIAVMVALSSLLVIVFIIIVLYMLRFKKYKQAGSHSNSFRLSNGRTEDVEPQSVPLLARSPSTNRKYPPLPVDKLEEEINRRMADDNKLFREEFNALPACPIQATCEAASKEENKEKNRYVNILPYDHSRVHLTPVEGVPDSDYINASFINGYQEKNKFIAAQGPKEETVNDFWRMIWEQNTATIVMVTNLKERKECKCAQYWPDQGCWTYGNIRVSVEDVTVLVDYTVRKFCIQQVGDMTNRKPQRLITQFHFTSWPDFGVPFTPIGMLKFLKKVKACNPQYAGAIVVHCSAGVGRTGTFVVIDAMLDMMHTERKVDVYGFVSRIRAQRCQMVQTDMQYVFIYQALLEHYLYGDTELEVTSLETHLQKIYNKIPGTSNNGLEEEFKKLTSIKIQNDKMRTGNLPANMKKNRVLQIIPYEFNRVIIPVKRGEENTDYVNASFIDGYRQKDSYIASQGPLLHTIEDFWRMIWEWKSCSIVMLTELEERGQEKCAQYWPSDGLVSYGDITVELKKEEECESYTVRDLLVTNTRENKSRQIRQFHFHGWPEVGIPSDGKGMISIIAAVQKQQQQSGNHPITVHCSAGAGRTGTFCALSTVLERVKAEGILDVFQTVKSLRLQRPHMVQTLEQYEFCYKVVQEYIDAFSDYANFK

Row | Structure (SMILES) | inhibition of IKK family members in vitro (IKK family members) | Ki (DUSP4) | Ki (PTP1B [1]) | Ki (PTP-alpha) | Ki (DUSP10) | Ki (DUSP14) | Ki (DUSP16) | rate of inactivation of PTP1B in the absence and presence of catalase (PTP1B [2]) | Ki (PTEN) | Ki (PTP-PEST) | Ki (LAR) | inhibition at 2 µM (PTP1B [3]) | Ki (TC-PTP) | rate of oxidation of the enzyme (PTP1B [4]) | extent of tyrosine phosphorylation (anti-pTyr immunoblot) (RAW 264 macrophages)
1 | Cc1ccc(S(=O)(=O)/C=C/C#N)cc1 [BAY 11-7082] | does not inhibit | 140 µM | 1 µM | 2.3 µM | 150 µM | 180 µM | 125 µM | the same | 100 µM | 0.9 µM | 2.5 µM | ~50% | 1.5 µM | – | –
2 | CC(C)(C)c1ccc(S(=O)(=O)/C=C/C#N)cc1 [BAY 11-7085] | – | 160 µM | 36 µM | 45 µM | 180 µM | 210 µM | 205 µM | – | 200 µM | 40 µM | 57 µM | – | 39 µM | – | –
3 | OO [H2O2, hydrogen peroxide] | – | – | – | – | – | – | – | – | – | – | – | – | – | 10 M⁻¹ s⁻¹ | –
4 | [Na+].[Na+].[Na+].[O]=[V]([O-])([O-])[O-] [sodium orthovanadate] | – | – | – | – | – | – | – | – | – | – | – | – | – | – | enhanced
